Assay results as given in US9963457B2, “Crystal of 5-((2-(6-amino)-9H-purin-9-yl)ethyl)amino)pentan-1-o1” (FOREVER CHEER INTERNATIONAL LIMITED, priority 2016, dated 2018).
≈ marks a conversion by molar mass, not a printed value.

Tests used:
[1] = system: mice treated with yeast polysaccharide; test: Elevated plus maze test (EPM), visceral pain; format: in vivo; conditions: for % time in the open arm: Visceral pain
Method: (§1) The visceral pain is induced by injecting yeast polysaccharide into the mice colony, and the yeast polysaccharide is derived from Saccharomyces cerevisiae (Sigma), wherein one kind of dextran is resident on the cell wall of the yeast and is identified as a protein-carbohydrate complex. Specifically, the mice were anesthetized after inhaling 1-3% isoflurane, and then a […] suspension of yeast polysaccharide (formulated as a 30 mg/ml solution in physiological saline) was injected into the colon of the mice by using a 24 mm long plastic feed needle within 2 minutes. The control group was injected with 0.1 ml physiological saline. The yeast polysaccharide or physiological saline was injected daily for 3 days. A visceral pain behavior test was carried out according to the Laird procedure. The number of times the mice licking the abdomen within 10 minutes was recorded, excluding other grooming behaviors, stretching of whole body, pressing the abdomen against the floor, and an 1-2-second arched posture. On day 1, 7 and 14 after the injection into the colon, an open field test was carried out from 9 am to 12 pm, and the entire test was a double-blind test. Prior to the behavioral test, the mice were acclimated for 30 minutes in an observation room. The mice were placed at the middle of a new open zone (43.2×43.2×30.5 cm^3) with micro light (<50 lux) and a fan. The movement distance, vertical count, movement count, stereotypic behavior count, and jumping count of animals were recorded within 30 minutes by means of an activity monitoring system equipped with multiple pairs of packaged light beam sets.
(§2) An anxious animal model of the prior art—the elevated plus maze test (EPM) was adopted. The mice were acclimated for 30 minutes in the room prior to the behavior observation. The EPM was composed of two open arms (250 lux) and two closed arms (350 lux) arranged opposite to each other. For each test, an individual animal was placed at the center of the test position and allowed to move freely. The test is carried out for 5 minutes. The number of entering the test position for each arm and the time spent therefore were recorded.
(§3) The EPM test tested the anxiety behavior of mice after the test treatment. The physiological saline, non-crystalline NB001 (3 mg/kg), the crystal of the present invention (3 mg/kg), and Gabapentin (30 mg/kg) as a positive control were intraperitoneally injected (IP) into the mice treated with yeast polysaccharide respectively. The behaviors of Mice were observed 28 days after the yeast polysaccharide treatment.

[2] = system: mice after neuropathic pain; test: Elevated plus maze test (EPM), neuropathic pain; format: in vivo
Method: as §2
The other two sets of tests were conducted to test the effect of the crystal of the present invention on inhibiting anxiety caused by chronic pain and neuropathic pain.
as §3

[3] = system: bone cancer pain model in rat (Walker 256 cells); test: Paw withdrawal thermal latency (PWL) in bone cancer pain model; format: in vivo, SD rats; conditions: twice daily for 3 days, PWL at 2 h after last administration (21d)
Method: 1. Animals 50 SD rats (180-220 g), placed under a quiet and warm (22° C.) environment without strong light irradiation, having free access to feed and water.
2. Cell Culture: SD Rat homologous cancer cell strains Walker 256 preserved by the Laboratory Animal Center, Forth Military Medical
University, or a commercially available product can be used. RPMI 1640 culture medium (Gibco Inc. of US, containing 100 U/ml each of 10% fetal bovine serum, penicillin, and streptomycin) was used, and the tumor cells were incubated as suspension cells in a 37° C. incubator under 5% CO2, with the medium replaced every other day, and 2 days for 1 passage. The cells were harvested at the 3rd passage, with a cell concentration of 2×10^5/10 μl.
3. Establishment of bone cancer pain model in rat: the rats were operated at the left knee with a small incision after anesthesia (40 mg/kg of pentobarbital sodium) according to sterile surgical operation procedures, the muscle was stripped off gently and the patellar ligament is cut open to expose the distal femur, with 1 mm syringe needle inserted from the intercondylar fossa vertically into the marrow cavity, with an inserting distance no more than 5 mm to prevent punching. Then a 20 μl micro-injector was inserted into the marrow cavity to slowly inject 10 μl of a suspension containing the Walker 256 cells (2×10^5 cancer cells per 10 μl). The injector was stayed there for a few minutes after the injection, and then the needle pinhole was immediately sealed with sterile bone wax. The tumor cells leaking out of the marrow cavity were killed with 75% ethyl alcohol, and then the rat was sutured under sterile conditions layer by layer. The same operation was performed in the sham operation group, except that only the same volume of sterile saline was injected into the marrow cavity slowly.
6. Drug intervention: On day 18 after the surgical operation, the SD rats of the operation group were randomized into 6 groups, i.e., respectively the model group; non-crystalline NB001 group (20 mg/kg, i.g.); the group of the crystal of the present invention (20 mg/kg, i.g.); morphine (2 mg/kg, i.p.); and gabapentin (100 mg/kg, i.g.). The new crystal form and non-crystalline form of the AC1 inhibitor NB001 were both formulated with sterile saline, and morphine and gabapentin were used as positive control drugs. All drugs were administered twice daily for 3 days, and the pain threshold was measured within 2 hours after the last administration on day 3
7. Assessment of rat pain behavior:
Paw withdrawal thermal latency (PWL): the PWL was measured by using a PL-200 thermal pain stimulator (8V, 50 W, with a strength of 100%). The time period since the time irradiating the middle portion of the planta pedis at the operation side of the rat with light till the time the rat lifted its leg to keep out of the light was TWL. To prevent tissue injury, a cut-off time of 80 s was set, each rat was measured for 3 times with an interval of 5 min, and the results were averaged.

[4] = system: mice treated with yeast polysaccharide; test: Visceral pain behavior test in chronic visceral pain model; format: in vivo; conditions: for Number of visceral pain scores: 28 days after yeast polysaccharide treatment
Method: Chronic Visceral Pain Model
as §1
The physiological saline, non-crystalline NB001 (3 mg/kg), the crystal of the present invention (3 mg/kg), and Gabapentin (30 mg/kg) as a positive control were intraperitoneally injected (IP) into the mice treated with yeast polysaccharide respectively. The behaviors of Mice were observed 28 days after the yeast polysaccharide treatment.

[5] = system: mice treated with yeast polysaccharide; test: Bright/dark box test, visceral pain; format: in vivo; conditions: for % time in the open arm: Bright/dark box test, Visceral pain
Method: as §1
Bright/dark box test: The test procedure was carried out by using an improved method in accordance with the prior art. The device was composed of a rectangular organic glass box (44×8.5×25 cm^3), which is separated into bright and dark compartments with the equal size by using a door. A 60 watt lamp (400 lux) in turn-on state was placed at 30 cm above the box to irradiate the bright compartment. Each animal was first placed in the dark compartment for 20 seconds, and then the door leading to the bright compartment was open. The time each animal stayed in the dark compartment and the time each animal enters the bright compartment within 10 minutes were recorded.
In order to confirm the effect of the crystal of the present invention on inhibiting anxiety, mice were subjected to a bright/dark box test, and the results were as shown in Table 8. The physiological saline, non-crystalline NB001 (3 mg/kg), the crystal of the present invention (3 mg/kg), and Gabapentin (30 mg/kg) as a positive control were intraperitoneally injected (IP) into the mice treated with yeast polysaccharide respectively. The behaviors of Mice were observed 28 days after the yeast polysaccharide treatment.

[6] = system: mice after neuropathic pain; test: Bright/dark box test, neuropathic pain; format: in vivo
adenylate cyclase 1 = adenylate cyclase 1 (Homo sapiens, UniProt Q08828); conditions: described in WO2007/041863; cited from earlier work
Chain of adenylate cyclase 1 (Q08828 whole entry): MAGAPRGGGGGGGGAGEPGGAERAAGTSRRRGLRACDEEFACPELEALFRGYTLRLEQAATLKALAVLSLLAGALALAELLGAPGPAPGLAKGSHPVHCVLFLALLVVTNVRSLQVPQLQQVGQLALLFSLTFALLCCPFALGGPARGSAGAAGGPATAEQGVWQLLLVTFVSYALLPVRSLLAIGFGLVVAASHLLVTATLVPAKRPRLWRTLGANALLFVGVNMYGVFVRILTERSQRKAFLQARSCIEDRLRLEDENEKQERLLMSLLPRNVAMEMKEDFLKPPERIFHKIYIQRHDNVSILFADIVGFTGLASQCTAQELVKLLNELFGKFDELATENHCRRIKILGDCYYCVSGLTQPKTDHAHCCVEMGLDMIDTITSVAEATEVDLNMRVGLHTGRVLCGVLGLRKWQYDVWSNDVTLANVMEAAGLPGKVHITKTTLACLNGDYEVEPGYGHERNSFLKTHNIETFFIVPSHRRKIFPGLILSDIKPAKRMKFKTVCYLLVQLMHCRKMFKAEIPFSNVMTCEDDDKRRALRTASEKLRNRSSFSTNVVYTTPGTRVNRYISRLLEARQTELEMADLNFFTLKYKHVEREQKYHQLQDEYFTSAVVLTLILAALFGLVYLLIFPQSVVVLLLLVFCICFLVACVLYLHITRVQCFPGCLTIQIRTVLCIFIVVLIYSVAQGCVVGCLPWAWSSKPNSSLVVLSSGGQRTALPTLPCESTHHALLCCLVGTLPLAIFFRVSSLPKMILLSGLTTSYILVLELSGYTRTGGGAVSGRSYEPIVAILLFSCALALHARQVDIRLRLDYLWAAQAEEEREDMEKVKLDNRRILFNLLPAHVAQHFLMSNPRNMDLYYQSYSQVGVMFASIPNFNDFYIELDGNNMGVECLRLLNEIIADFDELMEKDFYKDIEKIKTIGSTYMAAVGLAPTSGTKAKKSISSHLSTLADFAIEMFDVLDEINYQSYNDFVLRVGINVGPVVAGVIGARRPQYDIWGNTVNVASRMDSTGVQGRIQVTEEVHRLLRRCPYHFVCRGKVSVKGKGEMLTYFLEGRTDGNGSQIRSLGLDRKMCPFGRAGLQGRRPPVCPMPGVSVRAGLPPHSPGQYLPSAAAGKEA

[7] = Approximate solubility of BPCs in organic solvent and mixed solvent; format: physicochemical; conditions: organic solvent or mixture, thermodynamic from solid
Method: Into 7 mL vials were weighed 2.0 mg of the raw material respectively. Then appropriate amount of methanol, ethanol, isopropyl alcohol, n-butanol, acetonitrile, acetone, ethyl acetate, 2-methyl tetrahydrofuran, tetrahydrofuran, dioxane, n-pentyl alcohol, toluene, isopropyl alcohol+water (with a mass ratio of 3:1), acetonitrile+water (with a mass ratio of 3:1), acetone+water (with a mass ratio of 3:1), and ethanol+water (with a mass ratio of 3:1) were added into respective vials, and the mixture was shaken rapidly to dissolve the compound of the mixture until the solution becomes clear. The approximate solubility of the resultant bulk pharmaceutical chemicals (BPC) in an organic solvent and a mixed solvent was shown in Table 1 below.

With `NCC1(CC(=O)O)CCCCC1` [Gabapentin, gabapentin, reference compound] the “% time in the open arm” value ([1]; 30 mg/kg IP) was 8.6 ± 1.5 (8) %, the “% time in the open arm” value ([2]; 30 mg/kg IP) was 9.6 ± 1.5 (7) % and the “analgesic effect (PWL) as compared with the model group” value ([3]; 100 mg/kg, i.g.) was “better analgesic effect”. The “Number of visceral pain scores” value ([4]; 30 mg/kg IP) was 20.7 ± 1.9, the “% time in the open arm” value ([5]; 30 mg/kg IP) was 8.6 ± 1.5 (8) % and the “% time in the open arm” value ([6]; 30 mg/kg IP) was 9.6 ± 1.5 (7) %.

In the case of `Nc1ncnc2c1ncn2CCNCCCCCO` [NB001, 5-(((2-(6-amino)-9H-purin-9-yl)ethyl)amino)pentan-1-ol], the “inhibition of adenylate cyclase 1” value (adenylate cyclase 1) is listed as “capable of selectively inhibiting adenylate cyclase 1”, the “% time in the open arm” value ([1]; 3 mg/kg IP, 3 mg/kg) is listed as 5.2 ± 0.7 (8) % and the “% time in the open arm” value ([2]; 3 mg/kg IP, 3 mg/kg) is listed as 10.1 ± 1.8 (8) %. For the same molecule, the solubility ([7]; 2-methyl tetrahydrofuran) was under 2 mg/mL, the solubility ([7]; acetone) was under 2 mg/mL and the solubility ([7]; acetone/water (mass ratio 3:1)) was 100 to 200 mg/mL. It also gave a solubility ([7]; acetonitrile) of under 2 mg/mL, a solubility ([7]; acetonitrile/water (mass ratio 3:1)) of 100 to 200 mg/mL and a solubility ([7]; dioxane) of under 2 mg/mL. It also gave a solubility ([7]; ethanol) of 7 to 10 mg/mL (≈ 26.5 to 37.8 mM), a solubility ([7]; ethanol/water (mass ratio 3:1)) of 100 to 200 mg/mL and a solubility ([7]; ethyl acetate) of under 2 mg/mL. For the same molecule, the solubility ([7]; isopropyl alcohol) was about 2 mg/mL (≈ 7.57 mM), the solubility ([7]; isopropyl alcohol/water (mass ratio 3:1)) was 70 to 100 mg/mL and the solubility ([7]; methanol) was 50 to 66 mg/mL (≈ 189 to 250 mM). It also gave a solubility ([7]; n-butanol) of 2.2 to 2.5 mg/mL (≈ 8.32 to 9.46 mM), a solubility ([7]; n-pentyl alcohol) of 3 to 4 mg/mL (≈ 11.3 to 15.1 mM) and a solubility ([7]; tetrahydrofuran) of under 2 mg/mL. The solubility ([7]; toluene) was under 2 mg/mL, the “% time in the open arm” value ([5]; 3 mg/kg IP, 3 mg/kg) was 5.2 ± 0.7 (8) % and the “% time in the open arm” value ([6]; 3 mg/kg IP, 3 mg/kg) was 10.1 ± 1.8 (8) %.

For `Nc1ncnc2c1ncn2CCNCCCCCO` [Old NB001, 5-(((2-(6-amino)-9H-purin-9-yl)ethyl)amino)pentan-1-ol], the “therapeutic effect in EPM test as compared with the positive control group” value ([1]; 3 mg/kg IP, Table 7, listed as non-crystalline NB001) was “significant therapeutic effects”, the “analgesic effect (PWL) as compared with the model group” value ([3]; 20 mg/kg, i.g.) was “better analgesic effect” and the “Number of visceral pain scores” value ([4]; 3 mg/kg IP) was 19.6 ± 1.2. For the same molecule, the “therapeutic effect on chronic pain as compared with the positive control group” value ([4]; 3 mg/kg IP, Table 6, listed as non-crystalline NB001) was “significant therapeutic effects” and the “therapeutic effect in bright/dark box test as compared with the positive control group” value ([5]; 3 mg/kg IP, Table 8, listed as non-crystalline NB001) was “significant therapeutic effects”.

In the case of `CN1CC[C@]23c4c5ccc(O)c4O[C@H]2[C@@H](O)C=C[C@H]3[C@H]1C5` [morphine, reference compound], the “analgesic effect (PWL) as compared with the model group” value ([3]; 2 mg/kg, i.p.) is reported as “better analgesic effect”.
